# Test results: the NIST ThermoML archive (doi:10.1021/acs.jced.8b00132)
# “And” between values parts separate entries of the source, which are not always exact repeats. Identical values can stand only once. ± gives the expanded uncertainty stated by the source.
compound,measurement,setting,value
O=C(C(F)(F)C(F)(F)F)C(F)(C(F)(F)F)C(F)(F)F [dodecafluoro-2-methylpentan-3-one],thermal conductivity,"387.99 K, 395 kPa, Gas, hot wire",0.0199 ± 0.00094 W/m/K
same,thermal conductivity,"388 K, 395 kPa, Gas, hot wire",0.01971 ± 0.00093 W/m/K
same,thermal conductivity,"388.06 K, 258 kPa, Gas, hot wire",0.01842 ± 0.00087 W/m/K
same,thermal conductivity,"388.07 K, 128 kPa, Gas, hot wire",0.01819 ± 0.00086 W/m/K and 0.01818 ± 0.00086 W/m/K
same,thermal conductivity,"388.08 K, 257 kPa, Gas, hot wire",0.01826 ± 0.00086 W/m/K
same,thermal conductivity,"388.1 K, 26 kPa, Gas, hot wire",0.01771 ± 0.00083 W/m/K and 0.01756 ± 0.00083 W/m/K
same,thermal conductivity,"388.1 K, 394 kPa, Gas, hot wire",0.01994 ± 0.00095 W/m/K
same,thermal conductivity,"388.1 K, 395 kPa, Gas, hot wire",0.01983 ± 0.00094 W/m/K
same,thermal conductivity,"388.18 K, 257 kPa, Gas, hot wire",0.01851 ± 0.00087 W/m/K
same,thermal conductivity,"388.19 K, 128 kPa, Gas, hot wire",0.01818 ± 0.00086 W/m/K
same,thermal conductivity,"388.19 K, 256 kPa, Gas, hot wire",0.0184 ± 0.00087 W/m/K
same,thermal conductivity,"388.2 K, 128 kPa, Gas, hot wire",0.01804 ± 0.00085 W/m/K
same,thermal conductivity,"388.2 K, 395 kPa, Gas, hot wire",0.01983 ± 0.00094 W/m/K
same,thermal conductivity,"388.22 K, 394 kPa, Gas, hot wire",0.01966 ± 0.00093 W/m/K
same,thermal conductivity,"388.23 K, 26 kPa, Gas, hot wire",0.01766 ± 0.00083 W/m/K and 0.0176 ± 0.00083 W/m/K
same,thermal conductivity,"388.3 K, 256 kPa, Gas, hot wire",0.01853 ± 0.00087 W/m/K
same,thermal conductivity,"388.31 K, 256 kPa, Gas, hot wire",0.01853 ± 0.00087 W/m/K
same,thermal conductivity,"388.31 K, 396 kPa, Gas, hot wire",0.01994 ± 0.00095 W/m/K
same,thermal conductivity,"388.32 K, 395 kPa, Gas, hot wire",0.01985 ± 0.00094 W/m/K
same,thermal conductivity,"388.33 K, 127 kPa, Gas, hot wire",0.01792 ± 0.00084 W/m/K
same,thermal conductivity,"388.33 K, 128 kPa, Gas, hot wire",0.01804 ± 0.00085 W/m/K
same,thermal conductivity,"388.36 K, 26 kPa, Gas, hot wire",0.0176 ± 0.00083 W/m/K
same,thermal conductivity,"388.37 K, 26 kPa, Gas, hot wire",0.01755 ± 0.00082 W/m/K
same,thermal conductivity,"388.43 K, 254 kPa, Gas, hot wire",0.01861 ± 0.00088 W/m/K
same,thermal conductivity,"388.43 K, 255 kPa, Gas, hot wire",0.01863 ± 0.00088 W/m/K
same,thermal conductivity,"388.43 K, 396 kPa, Gas, hot wire",0.01991 ± 0.00095 W/m/K
same,thermal conductivity,"388.45 K, 397 kPa, Gas, hot wire",0.01966 ± 0.00093 W/m/K
same,thermal conductivity,"388.47 K, 127 kPa, Gas, hot wire",0.01796 ± 0.00084 W/m/K
same,thermal conductivity,"388.48 K, 127 kPa, Gas, hot wire",0.0179 ± 0.00084 W/m/K
same,thermal conductivity,"388.49 K, 516 kPa, Gas, transient hot wire",0.01836 ± 0.0011 W/m/K
same,thermal conductivity,"388.5 K, 26 kPa, Gas, hot wire",0.01759 ± 0.00083 W/m/K
same,thermal conductivity,"388.51 K, 26 kPa, Gas, hot wire",0.01751 ± 0.00082 W/m/K
same,thermal conductivity,"388.53 K, 395 kPa, Gas, transient hot wire",0.01832 ± 0.0011 W/m/K
same,thermal conductivity,"388.56 K, 254 kPa, Gas, hot wire",0.01874 ± 0.00088 W/m/K
same,thermal conductivity,"388.56 K, 255 kPa, Gas, hot wire",0.01872 ± 0.00088 W/m/K
same,thermal conductivity,"388.62 K, 127 kPa, Gas, hot wire",0.01791 ± 0.00084 W/m/K
same,thermal conductivity,"388.62 K, 257 kPa, Gas, transient hot wire",0.01852 ± 0.0011 W/m/K
same,thermal conductivity,"388.65 K, 26 kPa, Gas, hot wire",0.01756 ± 0.00083 W/m/K
same,thermal conductivity,"388.66 K, 26 kPa, Gas, hot wire",0.01755 ± 0.00082 W/m/K
same,thermal conductivity,"388.67 K, 515 kPa, Gas, transient hot wire",0.01836 ± 0.0011 W/m/K
same,thermal conductivity,"388.68 K, 516 kPa, Gas, transient hot wire",0.01848 ± 0.0011 W/m/K
same,thermal conductivity,"388.72 K, 394 kPa, Gas, transient hot wire",0.01847 ± 0.0011 W/m/K
same,thermal conductivity,"388.73 K, 395 kPa, Gas, transient hot wire",0.01843 ± 0.0011 W/m/K
same,thermal conductivity,"388.77 K, 619 kPa, Gas, transient hot wire",0.01829 ± 0.0011 W/m/K
same,thermal conductivity,"388.79 K, 619 kPa, Gas, transient hot wire",0.0182 ± 0.0011 W/m/K
same,thermal conductivity,"388.81 K, 257 kPa, Gas, transient hot wire",0.01868 ± 0.0011 W/m/K
same,thermal conductivity,"388.82 K, 256 kPa, Gas, transient hot wire",0.01825 ± 0.0011 W/m/K
same,thermal conductivity,"388.87 K, 514 kPa, Gas, transient hot wire",0.01853 ± 0.0011 W/m/K
same,thermal conductivity,"388.93 K, 394 kPa, Gas, transient hot wire",0.01809 ± 0.0011 W/m/K and 0.01843 ± 0.0011 W/m/K
same,thermal conductivity,"388.98 K, 619 kPa, Gas, transient hot wire",0.01836 ± 0.0011 W/m/K and 0.01835 ± 0.0011 W/m/K
same,thermal conductivity,"389.04 K, 256 kPa, Gas, transient hot wire",0.01865 ± 0.0011 W/m/K
same,thermal conductivity,"389.05 K, 256 kPa, Gas, transient hot wire",0.01868 ± 0.0011 W/m/K
same,thermal conductivity,"389.08 K, 515 kPa, Gas, transient hot wire",0.01859 ± 0.0011 W/m/K
same,thermal conductivity,"389.15 K, 395 kPa, Gas, transient hot wire",0.01856 ± 0.0011 W/m/K
same,thermal conductivity,"389.19 K, 619 kPa, Gas, transient hot wire",0.01856 ± 0.0011 W/m/K and 0.01854 ± 0.0011 W/m/K
same,thermal conductivity,"389.26 K, 256 kPa, Gas, transient hot wire",0.01862 ± 0.0011 W/m/K
same,thermal conductivity,"389.27 K, 255 kPa, Gas, transient hot wire",0.0187 ± 0.0011 W/m/K
same,thermal conductivity,"389.29 K, 513 kPa, Gas, transient hot wire",0.01867 ± 0.0011 W/m/K
same,thermal conductivity,"389.29 K, 514 kPa, Gas, transient hot wire",0.01867 ± 0.0011 W/m/K
same,thermal conductivity,"389.3 K, 67954 kPa, Liquid, transient hot wire",0.07227 ± 0.0015 W/m/K
same,thermal conductivity,"389.31 K, 53809 kPa, Liquid, transient hot wire",0.06794 ± 0.0014 W/m/K
same,thermal conductivity,"389.31 K, 53833 kPa, Liquid, transient hot wire",0.06806 ± 0.0014 W/m/K
same,thermal conductivity,"389.31 K, 67979 kPa, Liquid, transient hot wire",0.0723 ± 0.0015 W/m/K
same,thermal conductivity,"389.38 K, 396 kPa, Gas, transient hot wire",0.01859 ± 0.0011 W/m/K
same,thermal conductivity,"389.38 K, 397 kPa, Gas, transient hot wire",0.01856 ± 0.0011 W/m/K
same,thermal conductivity,"389.42 K, 40396 kPa, Liquid, transient hot wire",0.06362 ± 0.0013 W/m/K
same,thermal conductivity,"389.42 K, 40406 kPa, Liquid, transient hot wire",0.06374 ± 0.0013 W/m/K
same,thermal conductivity,"389.43 K, 67897 kPa, Liquid, transient hot wire",0.07231 ± 0.0015 W/m/K
same,thermal conductivity,"389.43 K, 67923 kPa, Liquid, transient hot wire",0.07209 ± 0.0015 W/m/K
same,thermal conductivity,"389.48 K, 29881 kPa, Liquid, transient hot wire",0.05966 ± 0.0012 W/m/K
same,thermal conductivity,"389.5 K, 254 kPa, Gas, transient hot wire",0.01874 ± 0.0012 W/m/K
same,thermal conductivity,"389.5 K, 53787 kPa, Liquid, transient hot wire",0.06829 ± 0.0014 W/m/K
same,thermal conductivity,"389.51 K, 255 kPa, Gas, transient hot wire",0.01838 ± 0.0011 W/m/K
same,thermal conductivity,"389.51 K, 53794 kPa, Liquid, transient hot wire",0.06804 ± 0.0014 W/m/K
same,thermal conductivity,"389.53 K, 21435 kPa, Liquid, transient hot wire",0.05599 ± 0.0012 W/m/K
same,thermal conductivity,"389.54 K, 21442 kPa, Liquid, transient hot wire",0.05607 ± 0.0012 W/m/K
same,thermal conductivity,"389.56 K, 40379 kPa, Liquid, transient hot wire",0.06355 ± 0.0013 W/m/K
same,thermal conductivity,"389.56 K, 40384 kPa, Liquid, transient hot wire",0.06363 ± 0.0013 W/m/K
same,thermal conductivity,"389.57 K, 67853 kPa, Liquid, transient hot wire",0.07219 ± 0.0015 W/m/K
same,thermal conductivity,"389.57 K, 67877 kPa, Liquid, transient hot wire",0.0722 ± 0.0015 W/m/K
same,thermal conductivity,"389.58 K, 14725 kPa, Liquid, transient hot wire",0.05279 ± 0.0011 W/m/K
same,thermal conductivity,"389.58 K, 14726 kPa, Liquid, transient hot wire",0.05278 ± 0.0011 W/m/K
same,thermal conductivity,"389.63 K, 29870 kPa, Liquid, transient hot wire",0.05967 ± 0.0012 W/m/K
same,thermal conductivity,"389.63 K, 29871 kPa, Liquid, transient hot wire",0.05964 ± 0.0012 W/m/K
